Source: US20170144972A1, “METHODS OF LOWERING PROPROTEIN CONVERTASE SUBTILISIN/KEXIN TYPE 9 (PCSK9)” (Catabasis Pharmaceuticals, Inc., priority 2012, published 2017)

Legend:
[1] = system: ApoE*3 Leiden mice; assay: Liver weight, plasma cholesterol and triglycerides of ApoE*3 Leiden mice, 16 weeks of treatment; assay type: in vivo; settings: I-8 in WTD at 7.5 g/kg
Protocol: The same experimental design used in example 6 was used. Two treatment groups were used (n=15). The control animals were kept on a Western type diet (WTD) consisting of 1% cholesterol, 15% cacao butter, 40.5% sucrose, and 1% corn oil. For the treatment group, compound I-8 was administered in the above WTD at a ratio of 7.5 g/kg. Animals were maintained on the WTD or treatment group for 16 weeks. At the conclusion of the study, plasma cholesterol and triglyceride levels were recorded, as well as the weight of the liver. There was a significant decrease in plasma cholesterol, triglyceride levels as well as liver weight in the treatment group. After 16 weeks of treatment, the cholesterol level of the treatment group was 420 mg/dL, compared with a level of 750 mg/dL for the control group; the triglyceride level was 110 mg/dL, compared with a level of 160 mg/dL for the control group.

[2] = system: Zucker fa/fa Rat model of Dyslipidemia; assay: Plasma triglyceride level of the Zucker fa/fa rat model of dyslipidemia; assay type: in vivo; settings: male Zucker rats, po qd, 10, 30, 100 and 300 mg/kg, blood sample day 4
Protocol: Male Zucker rats (HsdHlr: Zucker-Lepr̂fa) between 8-10 weeks of age were purchased from Harlan and maintained on Purina Rodent Diet (5001) for the duration of the study. Animals were randomized and assigned to treatment arms based on body weight and plasma triglyceride (TG) levels (n=8). Inclusion criteria for the study include body weight >300 grams and fed TG levels in plasma >800 mg/dL. Dosing will be initiated on day 1 and continue through day 5. Dosing will be daily (qd) by oral gavage (po) for all treatment arms (Compound I-8 was administered orally at 4 different doses, 10, 30, 100 and 300 mg/kg; in addition, a combination of niacin/EPA in a ratio of 100/200 mg/kg was also employed). Body weights will be measured for all rats on days 1 through 5. On day 4, a blood sample (fed) will be collected from each rat, processed for plasma and stored at −80° C. Plasma triglyceride level was determined from commercial kits using standard protocols. […] Because compound I-8 was able to lower fed plasma triglyceride, it is useful to treat dyslipidemia as well as other diseases such as type I hyperlipoproteinemia and type 5 hyperlipoproteinemia.

[3] = system: APOE*3Leiden mice; assay: Plasma cholesterol and triglycerides in ApoE3Leiden mice on Western type diet, 2 and 4 weeks of treatment; assay type: in vivo; settings: female APOE*3Leiden mice, WTD, I-8 0.75% w/w in diet, atorvastatin 0.0015% w/w in diet
Protocol: The study was conducted using female APOE*3Leiden mice (groups of each n=10) and one untreated reference control group on chow (n=5). To induce dyslipidemia, a high cholesterol Western type diet containing 1% cholesterol, 15% cacao butter, 40.5% sucrose and 1% corn oil (WTD) was fed to the mice for a total experimental period of 20 weeks (of which 4 weeks are a run-in period).
The dyslipidemic mice were grouped on the basis of plasma cholesterol at t=0 assayed in 4 h fasting blood. Mice with low cholesterol after the run-in period were excluded so that homogenous experimental groups were obtained. A group of reference mice (n=5) remained on a chow diet during the complete study period (normolipidemic reference mice).
This mix was then added to the master mix (containing the rest of the ingredients) and mixed thoroughly. The diet was frozen to −20° C. On the subsequent day, the diet was broken into small pellets (approx 5 g per piece) and freeze dried, and stored in vacuum sealed bags (approx 500 g) at −20° C. until use. The diets were refreshed daily and unused diet was discarded.
1) Body weight at −4, 0, 2, 4 weeks 2) Food intake (g/day/mouse) at 0, 2, 4 weeks (per cage) 3) Plasma total cholesterol at −4, 0, 2, 4 weeks (individually) 4) Plasma triglycerides at −4, 0, 2, 4 weeks (individually) 5) Lipoprotein profiles at 0 (pool of all animals) and 4 weeks (cholesterol distribution over VLDL, LDL and HDL-sized particles, analysis on group level).
EDTA plasma was collected in weeks −4, 0, 2 and 4 weeks.

[4] = system: PCSK9; assay: PCSK9 secretion assay in HepG2 cells (PCSK9 ELISA of supernatant); assay type: cell-based; settings: for lowering of PCSK9 (FIG. 1): 25 and 50 μM
Protocol: HepG2 cells (from ATCC, Catalog no. HB-8065) were maintained in DMEM (Invitrogen) supplemented with 10% fetal bovine serum (Invitrogen). The day prior to the PCSK9 assay, cells are seeded in 96-well collagen coated plates at 25,000 cells/well.
The compounds of the invention were stored at −20° C. until used. The test article compound was dissolved in 100% ethanol to a 50 mM stock solution. This was then diluted in FBS to a final concentration of 1 mM. This solution was placed in a sonicating water bath for 30 minutes. Subsequent dilutions were then made in FBS supplemented with an equivalent volume of ethanol and mixed by vortexing.
HepG2 cells were seeded onto a collagen coated 96-well plate (Becton Dickinson, Catalog no. 35-4407) the day prior to the assay, as described above. The next day, the cell medium was removed, washed once with […] serum free DMEM to remove any residual PCSK9, and replaced with […] of serum free DMEM. Ten microliters of each compound concentration prepared in FBS was then added. Each concentration of compound was tested in triplicate. The compound was incubated with the cells overnight for 16 hours. Following this incubation, 10 µL of AlamarBlue was added to each well and cells incubated for another 2 hours. The plates were then removed and AlamarBlue fluorescence was measured (excitation, 550 nm and […]) to assess cell viability. Cell culture supernatant was then diluted […] 1×RDSP Calibrator Diluent and PCSK9 ELISA was then performed with […] of this diluted sample, as per the manufacturer's instructions. The ELISA was measured on a Victor X5 multilabel plate reader (PerkinElmer) at an absorbance of 450 nm with background correction measured at 550 nm (The PCSK9 Elisa kits can be purchased from R&D System, Catalog no. DPC900).
Alternatively, an IC50 could also be obtained when this type of assay was carried out using at least 6 different concentrations of the test compounds. Table 1 lists the IC50 values for the compounds tested in this assay.

CC/C=C\C/C=C\C/C=C\C/C=C\C/C=C\CCCC(=O)NCCNC(=O)c1cccnc1 [Compound I-8, N-(2-(5Z,8Z,11Z,14Z,17Z)-eicosa-5,8,11,14,17-pentaenamidoethyl)nicotinamide]
liver weight (FIG. 7) [1]: statistically significant drop
fed plasma triglyceride level (FIG. 3) [2]: dose dependent decrease
plasma cholesterol at t=2 weeks (FIG. 4) ([3]; 2 weeks): statistically significant reduction
plasma cholesterol after 4 weeks of treatment (FIG. 5) ([3]; 4 weeks): Comparable level of cholesterol reduction
plasma triglyceride levels after 4 weeks of treatment (FIG. 6) ([3]; 4 weeks): significant reduction
PCSK9 levels in HepG2 cells incubated with atorvastatin (FIG. 2) ([4]; HepG2 cells incubated with 10 μM of atorvastatin along with test article): decrease PCSK9 levels in a dose response manner to well below the atorvastatin level induced levels
lowering of PCSK9 (FIG. 1) ([4]; HepG2 cells): significant lowering of PCSK9

CC(C)c1c(C(=O)Nc2ccccc2)c(-c2ccccc2)c(-c2ccc(F)cc2)n1CC[C@@H](O)C[C@@H](O)CC(=O)O [atorvastatin, reference compound]
PCSK9 secretion (FIG. 2) ([4]; HepG2 cells, 10 μM atorvastatin alone): increases PCSK9 secretion

CC/C=C\C/C=C\C/C=C\C/C=C\C/C=C\CCCC(=O)NCCNC(=O)c1ccccc1 [II-1, N-(2-((5Z,8Z,11Z,14Z,17Z)-icosa-5,8,11,14,17-pentaenamido)ethyl)benzamide]
lowering of PCSK9 (FIG. 1) ([4]; HepG2 cells): significant lowering of PCSK9

CC/C=C\C/C=C\C/C=C\C/C=C\C/C=C\CCCC(=O)NCCNC(C)=O [Compound A, (5Z,8Z,11Z,14Z,17Z)—N-(2-acetamidoethyl)icosa-5,8,11,14,17-pentaenamide, reference compound]
activity toward PCSK9 (FIG. 1) ([4]; HepG2 cells, highest tested concentration of 50 μM): essentially no activity
